Measurements published in US9486461B2, “Methods and compositions for inducing apoptosis by stimulating ER stress” (UNIVERSITY OF SOUTHERN CALIFORNIA, priority 2007, dated 2016).
pIC50: −log10 of the molar value. “And” between values parts separate entries of the source, which are not always exact repeats. Identical values can stand only once.

Experiments:
[1] = test system: U87MG glioblastoma cell line; test: MTT assay, U87MG; type: cell-based; conditions: Homo sapiens, U-87 MG, 48 h, read-out: IC50 (50% inhibition of cell growth)
Procedure: (§1) For comparison purposes to the known anti-multiple myeloma effects of bortezomib, the RPMI/8226 multiple myeloma cell line was included in (A).
(§2) 3-(4,5-Dimethylthiazol-2-yl)-2,5-diphenyltetrazolium bromide (MTT) assays were performed in 96-well plates with the use of 3.0×10^3 to 8.0×10^3 cells per well as described in detail elsewhere (19).

CHOP protein = test: Western blot of CHOP in various cancer cell lines; type: cell-based; conditions: glioblastoma, breast carcinoma, pancreatic carcinoma, Burkitt's lymphoma, multiple myeloma cell lines; Cxb 40 and 60 μM, DMC 30 and 50 μM; 48 hours
Procedure: Total cellular lysates were prepared and analyzed by Western blot analysis with specific antibodies to CHOP. As a control for equal loading, all blots were also analyzed with antibodies to actin (only one of these control blots is shown at the bottom). The tumor type of each cell line is indicated on the right.
Total cell lysates were prepared by lysis of cells with radioimmunoprecipitation assay buffer (28), and protein concentrations were determined using the bicinchoninic acid protein assay reagent (Pierce, Rockford, Ill.). For Western blot analysis, 50 Ag of each sample were processed as described (29). The primary antibodies were purchased from Cell Signaling Technologies (Beverly, Mass.), Cayman Chemical (Ann Arbor, Mich.), or Santa Cruz Biotechnology, Inc. (Santa Cruz, Calif.) and used according to the manufacturer's recommendations. The secondary antibodies were coupled to horseradish peroxidase and detected by chemiluminescence using the SuperSignal West substrate from Pierce. All immunoblots were repeated at least once to confirm the results.

cellular translation = test: Incorporation of 35S-methionine into newly translated proteins; type: cell-based; conditions: 2 h of treatment
[2] = test system: LN229 glioblastoma cell line; test: MTT assay, LN229; type: cell-based, human; conditions: LN229, 48 h
Procedure: as §1, §2

[3] = Drug concentrations in plasma and tumor tissue by LC-MS; type: in vivo; conditions: 50 h; for Tumor tissue levels (approximately μmol/L) / Tumor tissue levels: U87 tumor tissue; for Maximum plasma levels: tumor-bearing nude mice
Procedure: Blood was collected in heparinized syringes using cardiac puncture of nude mice. The blood was allowed to settle at room temperature for 30 min followed by centrifugation at 2,000 rpm for 5 min at 4° C. The plasma was separated from the cells and transferred to a fresh tube. […] After thorough vortexing, plasma proteins were precipitated using 425 μL acetonitrile and vortexing for 1 min. The entire mixture was centrifuged at 4,500 rpm for 5 min to separate the protein precipitate, and 400 μL of the supernatant were transferred to a fresh tube. The sample was evaporated using a steady stream of air, and the dried residue was reconstituted using 150 μL of mobile phase consisting of 80:20 (v/v) methanol:10 mmol/L ammonium acetate (pH 4.5). To remove any undissolved precipitates, the samples were again centrifuged at 4,500 rpm for 5 min, and the supernatant was transferred to a fresh tube. Ten microliters of each sample were analyzed in duplicate by liquid chromatography mass spectrometry.
To determine the amount of drug in each sample, an Agilent 1100 high-pressure liquid chromatography system (Agilent Technologies, Santa Clara, Calif.) coupled onto a Sciex API 3000 triple quadruple tandem mass spectrometer (Applied Biosystems, Foster City, Calif.) was used. To separate the analytes, a Thermo HyPURITY C18 column (50×4.6 mm, 3 micron; Thermo Fisher Scientific, Inc., Waltham, Mass.) was used. The mobile phase consisted of 80:20 (v/v) methanol:10 mmol/L ammonium acetate (pH 4.5). […] The analytes were then introduced into the Sciex API 3000, which was set in the negative ion mode. […] The lower level of quantification of this assay was established at 5 ng/mL.

U251 glioblastoma cells = test: MTT assay, U251; type: cell-based, human; conditions: for pIC50: Homo sapiens, U-251, U251, 48 h, MTT, read-out: IC50 (50% inhibition of cell growth)
Procedure: U251 glioblastoma cells were treated with different drugs, and various parameters of cell growth and cell death were comparatively analyzed. As controls, cells remained either non-treated (Co) or were treated with the solvent DMSO alone. (FIG. 8A) Cells were treated with 30 or 50 μM DMC for 48 hours and the effects on cell growth/survival and on cell death were determined by various assays. […] Below the three panels, the expression levels of the ER stress indicators CHOP, GRP78, and caspase 4 at the end of the 48 hour drug treatment is shown, as determined by Western blot analysis with specific antibodies (actin served as a loading control. (FIG. 8B) Cells were treated with various concentrations of different drugs for 48 hours, as indicated, and cell death was measured with the cell death ELISA kit. (FIG. 8C) Cells were treated with DMC or various coxibs and traditional NSAIDs for 48 hours, as indicated, and cell growth and survival was determined with the conventional MTT assay (control, non-treated cells were set at 100%). MTT assays were performed in 96-well plates with the use of 3.0-8.0×10^3 cells per well as described in detail elsewhere (34). In parallel, the expression levels of CHOP and GRP78 protein were determined by Western blot analysis. […]
as §2

[4] = test system: T98G glioblastoma cell line; test: MTT assay, T98G; type: cell-based; conditions: Homo sapiens, 48 h, read-out: IC50 (50% inhibition of cell growth)
Procedure: as §1, §2

[5] = 30 mg/kg/d, average of two measurements
[6] = 30 mg/kg/d, half dose every 12 h into the stomach, average of two measurements
[7] = 90 mg/kg/d, average of two measurements
[8] = 90 mg/kg/d, half dose every 12 h into the stomach, average of two measurements
[9] = 150 mg/kg/d, average of two measurements
[10] = 150 mg/kg/d, half dose every 12 h into the stomach, average of two measurements
[11] = 180 mg/kg/d, average of two measurements
[12] = 180 mg/kg/d, half dose every 12 h into the stomach, average of two measurements

Structure (SMILES)	pIC50 [1]	induction of CHOP protein (CHOP protein)	sensitivity of LN229 compared with the other glioblastoma cell lines [2]	Tumor tissue levels (approximately μmol/L) ([3]; 30 mg/kg/d) [µmol/L]	Tumor tissue levels [3, 5] [ng/mg]	Maximum plasma levels ([3]; 30 mg/kg/d) [µmol/L]	Maximum plasma levels [3, 6]	Tumor tissue levels (approximately μmol/L) ([3]; 90 mg/kg/d) [µmol/L]	Tumor tissue levels [3, 7] [ng/mg]	Maximum plasma levels ([3]; 90 mg/kg/d) [µmol/L]	Maximum plasma levels [3, 8]	Tumor tissue levels (approximately μmol/L) ([3]; 150 mg/kg/d) [µmol/L]	Tumor tissue levels [3, 9] [ng/mg]	Maximum plasma levels ([3]; 150 mg/kg/d) [µmol/L]	Maximum plasma levels [3, 10]	Tumor tissue levels (approximately μmol/L) ([3]; 180 mg/kg/d) [µmol/L]	Tumor tissue levels [3, 11] [ng/mg]	Maximum plasma levels ([3]; 180 mg/kg/d)	Maximum plasma levels [3, 12]	pIC50 (U251 glioblastoma cells)	also measured
Cc1ccc(C)c(-c2cc(C(F)(F)F)nn2-c2ccc(S(N)(=O)=O)cc2)c1 [DMC, 4-[5-(2,5-dimethylphenyl)-3-(trifluoromethyl)-1H-pyrazol-1-yl]benzenesulfonamide]	> 4.40	potently induce CHOP	slightly less sensitive	~0.021	8.27	7.6	3,035 μg/L	~0.037	14.44	8.0	3,190 μg/L	~0.099	39.04	23.8	9,500 μg/L	~0.280	110.42	45 µmol/L and 45.5 µmol/L	18,200 μg/L	> 4.40	reduction of ongoing translation (cellular translation; 60 μmol/L): ~90%; cellular activity in MTT assays (U251 glioblastoma cells; U251, 30 and 50 μmol/L, 48 hours): reduced cellular activity; pIC50 [4]: > 4.40
Cc1ccc(-c2cc(C(F)(F)F)nn2-c2ccc(S(N)(=O)=O)cc2)cc1 [celecoxib, 4-[5-(4-methylphenyl)-3-(trifluoromethyl)-1H-pyrazol-1-yl]benzenesulfonamide]	~4.30	potently induce CHOP	slightly less sensitive	~0.046	17.53	18.2	6,950 μg/L	~0.116	44.03	24.8	9,450 μg/L	~0.161	61.23	36.8	14,000 μg/L	~0.25	94.78	45 µmol/L	17,000 μg/L	~4.30	reduction of ongoing translation (cellular translation; 80 μmol/L): ~90%; Tumor tissue levels (approximately μmol/L) ([3]; 180 mg/kg/d, listed as Cxb): ~0.249 µmol/L; Maximum plasma levels ([3]; 180 mg/kg/d, listed as Cxb): 44.6 µmol/L; detectable effect on cell growth and survival (MTT) (U251 glioblastoma cells; U251, 48 hours, concentrations of up to 100 μmol/L): reduced the viability of the cell culture; pIC50 [4]: ~4.30
